Assay results: patent publication US20230140983A1, “PYRIDAZINE DERIVATIVES FOR MODULATING NUCLEIC ACID SPLICING” (REMIX THERAPEUTICS INC., priority 2020, published 2023)
Where a name gives a salt, the structure may show the parent alone. Read-outs that look alike come from different tables or passages of the source. One block for each molecule: values may come before it.

Legend:
Assay type in all cases: cell-based
HTT [1] = assay: Splicing assay (RT-qPCR on cell lysates) monitoring HTT splice variants: AJ and CJ mRNA; conditions: concentration having 50% response
Procedure: Example 69: Exemplary Splicing Assay for Monitoring Expression Levels of Splice Variants
(§1) To set up 10 uL RT-qPCR reactions, cell lysates were transferred to 384-well qPCR plates containing the master mix according to the table below. The plates were sealed, gently vortexed, and spun down before the run. The volumes were adjusted accordingly in some instances where the reaction was carried in 20 uL. The table below summarizes the components of the RT-qPCR reactions:
(§2) The RT-qPCR reaction was performed using a QuantStudio (ThermoFisher) under the following fast cycling conditions. All samples and standards were analyzed at least in duplicate. In some instances, bulk room temperature (RT) step of 5-10 minutes was completed for all plates before proceeding with qPCR. The table below summarizes the PCR cycle:
(§3) The data analysis was performed by first determining the ΔCt vs the housekeeper gene. This ΔCt was then normalized against the DMSO control (ΔΔCt) and converted to RQ (relative quantification) using the 2^(−ΔΔCt) equation. The RQ were then converted to a percentage response by arbitrarily setting an assay window of 3.5 ΔCt for HTT-CJ and an assay window of 9 ΔCt for HTT-AJ. […] The percentage response was then fitted to the 4 parametric logistic equation to evaluate the concentration dependence of compound treatment. The increase in AJ mRNA is reported as AC50 (compound concentration having 50% response in AJ increase) while the decrease in CJ mRNA levels is reported as IC50 (compound concentration having 50% response in CJ decrease).

HTT [2] = assay: Gene panel canonical junction qPCR assay, HTT CJ mRNA; conditions: Table 9, CJ mRNA decrease, read-out: HTT IC50 (decrease in CJ mRNA levels)
Procedure: as §1, §2, §3
(§4) Additional studies were carried out for a larger panel of genes using the protocol provided above. The junction between flanking upstream and downstream exons was used to design canonical junction qPCR assays. At least one of the forward primer, reverse primer or the CY5-labeled 5′ nuclease probe (with 3′ quencher such as ZEN/Iowa Black FQ) was designed to overlap with the exon junction to capture the CJ mRNA transcript. BLAST was used to confirm the specificity of the probeset and parameters such as melting temperature, GC content, amplicon size, and primer dimer formation are considered during their design. Data for the decrease in CJ mRNA levels for three exemplary genes (HTT, SMN2, and Target C) analyzed in this panel are reported as IC50 (compound concentration having 50% response in CJ decrease).

SMN2 = assay: Gene panel canonical junction qPCR assay, SMN2 CJ mRNA; conditions: Table 9, CJ mRNA decrease, read-out: SMN2 IC50 (decrease in CJ mRNA levels)
Procedure: as §1, §2, §3, §4

Target C = assay: Gene panel canonical junction qPCR assay, Target C CJ mRNA; conditions: Table 9, CJ mRNA decrease, read-out: Target C IC50 (decrease in CJ mRNA levels)
Procedure: as §1, §2, §3, §4

[3] = Table 8, decrease in CJ mRNA, read-out: HTT CJ AC50
[4] = Table 8, increase in AJ mRNA, read-out: HTT AJ AC50

IC50 (HTT [2]): > 10000 nM | IC50 (SMN2): 100 to 1000 nM | IC50 (Target C): > 10000 nM
SMILES: CN1C[C@@H]2CN(c3ccc(-c4ccc(-c5cn[nH]c5)c5ncsc45)nn3)C[C@@H]2C1 [Compound 198, 7-{6-[(exo)-5-methyl-hexahydropyrrolo[3,4-c]pyrrol-2-yl]pyridazin-3-yl}-4-(1H-pyrazol-4-yl)-1,3-benzothiazole hydrochloride]
AC50 (HTT [1]; [3]): > 10000 nM | AC50 (HTT [1]; [4]): > 10000 nM

IC50 (HTT [2]): 1000 to 10000 nM | IC50 (SMN2): 1000 to 10000 nM | IC50 (Target C): 1000 to 10000 nM
SMILES: c1n[nH]cc1-c1ccc(-c2ccc(N3CC4(CCNCC4)C3)nn2)c2[nH]ncc12 [Compound 229]
AC50 (HTT [1]; [3]): 1000 to 10000 nM | AC50 (HTT [1]; [4]): 1000 to 10000 nM

IC50 (HTT [2]): 100 to 1000 nM | IC50 (SMN2): 100 to 1000 nM | IC50 (Target C): 100 to 1000 nM
SMILES: c1nc2c(-c3cn[nH]c3)ccc(-c3ccc(OC4CCNCC4)nn3)c2s1 [Compound 183]
AC50 (HTT [1]; Table 7, decrease in CJ mRNA, read-out: HTT CJ AC50): > 5000 nM | AC50 (HTT [1]; Table 7, increase in AJ mRNA, read-out: HTT AJ AC50): > 5000 nM | AC50 (HTT [1]; [3]): 100 to 1000 nM | AC50 (HTT [1]; [4]): 100 to 1000 nM

IC50 (HTT [2]): > 10000 nM | IC50 (SMN2): > 10000 nM | IC50 (Target C): > 10000 nM
SMILES: c1n[nH]cc1-c1ccc(-c2ccc(N3CC4(CCCNC4)C3)nn2)c2[nH]ncc12 [Compound 218]
AC50 (HTT [1]; [3]): > 10000 nM | AC50 (HTT [1]; [4]): > 10000 nM

IC50 (HTT [2]): > 10000 nM | IC50 (SMN2): 100 to 1000 nM | IC50 (Target C): > 10000 nM
SMILES: c1nc2c(-c3cn[nH]c3)ccc(-c3ccc(NC4CCNCC4)nn3)c2s1 [Compound 214, N-(piperidin-4-yl)-6-[4-(1H-pyrazol-4-yl)-1,3-benzothiazol-7-yl]pyridazin-3-amine]
AC50 (HTT [1]; [3]): > 10000 nM | AC50 (HTT [1]; [4]): 1000 to 10000 nM

IC50 (HTT [2]): > 10000 nM | IC50 (SMN2): 1000 to 10000 nM | IC50 (Target C): > 10000 nM
SMILES: c1nc2c(-c3cn[nH]c3)ccc(-c3ccc(N4CCC5(CCCNC5)C4)nn3)c2s1 (stereo not shown) [Compound 191]
AC50 (HTT [1]; [3]): > 10000 nM | AC50 (HTT [1]; [4]): > 10000 nM

IC50 (HTT [2]): > 10000 nM | IC50 (SMN2): > 10000 nM | IC50 (Target C): > 10000 nM
SMILES: c1nc2c(-c3cn[nH]c3)ccc(-c3ccc(N4CCC5(CCNCC5)C4)nn3)c2s1 [Compound 190]
AC50 (HTT [1]; [3]): > 10000 nM | AC50 (HTT [1]; [4]): > 10000 nM

The next lines start with the molecule.

SMILES: [2H]C([2H])([2H])N(c1ccc(-c2ccc(-c3cn[nH]c3)c3ncsc23)nn1)[C@@H]1C[C@H]2CC[C@@H](C1)N2 [Compound 210, (exo-)-N-(D3)methyl-N-[6-[4-(1H-pyrazol-4-yl)-1,3-benzothiazol-7-yl]pyridazin-3-yl]-8-azabicyclo [3.2.1]octan-3-amine]
AC50 (HTT [1]; [3]): < 100 nM | AC50 (HTT [1]; [4]): < 100 nM | IC50 (HTT [2]): < 100 nM | IC50 (SMN2): < 100 nM | IC50 (Target C): < 100 nM

SMILES: CN(c1ccc(-c2ccc(-c3cn[nH]c3)c3ncsc23)nn1)[C@@H]1C[C@H]2CCC[C@@H](C1)N2 [Compound 226]
AC50 (HTT [1]; [3]): < 100 nM | AC50 (HTT [1]; [4]): < 100 nM | IC50 (HTT [2]): < 100 nM | IC50 (SMN2): < 100 nM | IC50 (Target C): < 100 nM

SMILES: c1nc2c(-c3cn[nH]c3)ccc(-c3ccc(S[C@@H]4C[C@H]5CC[C@@H](C4)N5)nn3)c2s1 [Compound 200, 7-{6-[(exo)-8-azabicyclo[3.2.1]octan-3-ylsulfanyl]pyridazin-3-yl}-4-(1H-pyrazol-4-yl)-1,3-benzothiazole]
AC50 (HTT [1]; [3]): > 10000 nM | AC50 (HTT [1]; [4]): > 10000 nM | IC50 (HTT [2]): > 10000 nM | IC50 (SMN2): > 10000 nM | IC50 (Target C): > 10000 nM

SMILES: c1nc2c(-c3cn[nH]c3)ccc(-c3ccc(N[C@@H]4C[C@H]5CC[C@@H](C4)N5)nn3)c2s1 [Compound 202, (exo-)-N-[6-[4-(1H-pyrazol-4-yl)-1,3-benzothiazol-7-yl]pyridazin-3-yl]-8-azabicyclo[3.2.1]octan-3-amine]
AC50 (HTT [1]; [3]): < 100 nM | AC50 (HTT [1]; [4]): < 100 nM | IC50 (HTT [2]): < 100 nM | IC50 (SMN2): < 100 nM | IC50 (Target C): 100 to 1000 nM

SMILES: CN(c1ccc(-c2ccc(-c3ccn(C)c(=O)c3)c3scnc23)nn1)C1CC(C)(C)NC(C)(C)C1 [Compound 174]
AC50 (HTT [1]; [3]): 1000 to 10000 nM | AC50 (HTT [1]; [4]): 1000 to 10000 nM | IC50 (HTT [2]): 1000 to 10000 nM | IC50 (SMN2): 100 to 1000 nM | IC50 (Target C): > 10000 nM

SMILES: Cn1cc(-c2ccc(-c3ccc(OC4CC(C)(C)NC(C)(C)C4)nn3)c3[nH]ncc23)cn1 [Compound 232, 4-(1-methylpyrazol-4-yl)-7-{6-[(2,2,6,6-tetramethylpiperidin-4-yl)oxy]pyridazin-3-yl}-1H-indazole]
AC50 (HTT [1]; [3]): 1000 to 10000 nM | AC50 (HTT [1]; [4]): 100 to 1000 nM | IC50 (HTT [2]): 1000 to 10000 nM | IC50 (SMN2): 100 to 1000 nM | IC50 (Target C): 1000 to 10000 nM

SMILES: CN(c1ccc(-c2ccc(-c3cnn(C)c(=O)c3)c3scnc23)nn1)C1CC(C)(C)NC(C)(C)C1 [Compound 211]
IC50 (HTT [2]): 100 to 1000 nM | IC50 (SMN2): 100 to 1000 nM | IC50 (Target C): 100 to 1000 nM
